Test results from patent US20210002209A1, “NOVEL CRYSTALLINE FORMS OF TAMIBAROTENE FOR TREATMENT OF CANCER” (TRANSGENEX NANOBIOTECH, INC., priority 2018, published 2021).
In brackets after ≈: the same amount, converted by molar mass. Read-outs that look alike come from different tables or passages of the source.

Experiments:
[1] = cited from earlier work
[2] = tested on: SAOS; assay: IC50 studies, monolayer cell culture assay (CellTiter-Glo cell viability, 72 hours); type: cell-based; details: sarcoma
Experimental: (§1) Cancer cell lines listed in Table 1, were subjected for testing anti-cancer potency or the half maximal inhibitory concentration (IC50) of tamibarotene molecular complexes.
(§2) The SK-ES-1, U-2 OS, and SAOS-2 cells were cultured in a growth medium that is ATCC-formulated McCoy's 5a Medium Modified, Catalog No. 30-2007. The PC-3, PANC-1, SK-Mel-5, A549, H460, and H1299 were cultured in a growth medium that is ATCC-formulated Dulbecco's Modified Eagle's Medium (DMEM), Catalog No. 30-2002. The cells were seeded on 96-well microtiter plates with 3500 cells per well and cultured in an incubator (Model 3120, Thermo Scientific, USA) with a constant temperature at 37° C. and 5% carbon dioxide (CO2) gas for 24 hours.
(§3) The new tamibarotene molecular complexes were made into a series with concentration of 200 nM to 40 nM, 8 nM, 1.6 nM, 0.32 nM, and 0.064 nM. […]
(§4) The treated cells in the 96 well plate was then further cultured at the same conditions for 72 hours and then subjected for a final cell viability measurement. The measurement used a homogeneous method to determine the number of metabolically active cells presented in each of treatments. A testing reagent for the measurement is a mixture solution of the CellTiter-Glo® 2.0 reagent (CTG, Promega Cat #G9243, USA) and growth medium in 1:1 ratio in this respect.
(§5) The 96-well plate with the new molecular complex treated cells was taken out from incubator after the 72 hours of incubation, and the treatment solution in each well was removed using a multichannel pipette, and 100 μl of the testing reagent were added into each well. The plate was then placed on a plate shaker for 15 min. The plate was covered with a piece of aluminum foil to protect the CTG luminescence during the shaking time.
(§6) Then 90 μl of the 100 μl testing reagent were transferred into an opaque-walled 96-well plate for the CTG luminescence reading on a plate reader (SynergyH4 Hybrid Reader, Biotek, USA). The luminescence intensity of each treatment was positively correlated with the number of cells survived during the treatments.
(§7) All the treatment data was normalized by comparing with the control samples that had only growth medium without any molecular complexes. The half maximal inhibitory concentration (IC50) data was calculated using the nonlinear regression model and dose-responses (inhibition) curve built in the software. Each of treatments was performed in three replications each time and repeated three times for validation. The IC50 average […] (Avg) and standard deviation (STDV) were calculated based on the three replications.

[3] = tested on: PC-3; assay: as above; type: cell-based; details: PC-3, prostate
Experimental: as §1, §2, §3, §4, §5, §6, §7

[4] = tested on: U-2 OS; assay: as above; type: cell-based; details: sarcoma
Experimental: as §1, §2, §3, §4, §5, §6, §7

[5] = tested on: SK-ES-1; assay: as above; type: cell-based
Experimental: as §1, §2, §3, §4, §5, §6, §7

[6] = tested on: SK-Mel-5; assay: as above; type: cell-based; details: SK-Mel-5, skin
Experimental: as §1, §2, §3, §4, §5, §6, §7

[7] = tested on: A549; assay: as above; type: cell-based; details: A549, lung
Experimental: as §1, §2, §3, §4, §5, §6, §7

[8] = tested on: H460; assay: as above; type: cell-based
Experimental: as §1, §2, §3, §4, §5, §6, §7

[9] = tested on: H1299; assay: as above; type: cell-based
Experimental: as §1, §2, §3, §4, §5, §6, §7

[10] = tested on: sarcoma cell line SK-ES-1; assay: Tumor sphere formation assay; type: cell-based; details: SK-ES-1 spheres, diameter over 50 μm, day 6
Excerpt: Cancer stem cells (CSCs) are defined as a small subset of cells within a tumor with the ability to self-renew and often drive tumor progression and recurrence after chemotherapy treatment (Zhou et al. (2015) “A Reliable Parameter to Standardize the Scoring of Stem Cell Spheres,” PLOS One 10(5); e0127348). It is important to study the responses of cancer stem cells or the tumors treated with the new molecular complexes. We have assessed CSC growth using tumor sphere formation assay, which involves culturing cancer cells in low attachment plates in serum free media. Sphere size and diameter was measured using ImageJ software and statistical analysis was performed using Graph Pad Prism Software. […]
On the day 6 of seeding, 10 μl of NucBlue Live Cell Stain ReadyProbes (Invitrogen Cat #R37605, USA) were added into each well for staining to visualize the live cells under the blue fluorescent light. […] Then the plate was brought to the Keyence imaging device (Keyence America, All-in-One Fluorescence Microscope BZ-X800, USA) for image scanning. […]
The sphere image area is calculated as a sum of image area of every individual sphere with diameter over 50 μm in each treatment well. […]
The sarcoma spheres were stained with NucBlue Live Cell Stain ReadyProbes (Invitrogen Cat #R37605) and imaged under 4× objective lens on Keyence imaging scanner (Keyence America, All-in-One Fluorescence Microscope BZ-X800).

[11] = Test I, read-out: IC50 Test(I) Avg
[12] = Test II, read-out: IC50 Test (II) Avg
[13] = Test III, read-out: IC50 Test (III) Avg
[14] = Homo sapiens, Test I, read-out: IC50 Test(I) Avg
[15] = Homo sapiens, Test II, read-out: IC50 Test (II) Avg
[16] = Homo sapiens, Test III, read-out: IC50 Test (III) Avg
[17] = H460, lung, Test I, read-out: IC50 Test(I) Avg
[18] = H460, lung, Test II, read-out: IC50 Test (II) Avg
[19] = H460, lung, Test III, read-out: IC50 Test (III) Avg
[20] = H1299, lung, Test I, read-out: IC50 Test(I) Avg
[21] = H1299, lung, Test II, read-out: IC50 Test (II) Avg
[22] = H1299, lung, Test III, read-out: IC50 Test (III) Avg

In the case of `CC1(C)CCC(C)(C)c2cc(NC(=O)c3ccc(C(=O)O)cc3)ccc21` [TAM, 4-[(5,5,8,8-tetramethyl-5,6,7,8-tetrahydronaphthalen-2-yl)carbamoyl]benzoic acid, reference compound], the “solubility in DMF, methanol, ethanol, DMSO, and other organic solvents” value [1] is given as “soluble”, the “solubility in acetonitrile, water, and various other buffer solutions” value ([1]; pH 3~7, from CN101200435 (B)) is given as “insoluble” and the water solubility ([1]; water, drug bank) is given as 0.575 µg/mL (≈ 1.64 µM). For the same molecule, the IC50 [2, 11] was 55.4 µM, the IC50 [2, 12] was 46.5 µM and the IC50 [2, 13] was over 100 µM. It also gave an IC50 [3, 14] of over 100 µM, an IC50 [3, 15] of over 100 µM and an IC50 [3, 16] of over 100 µM. The IC50 ([4]; Homo sapiens, U2OS, Test I, read-out: IC50 Test(I) Avg) was over 100 µM, the IC50 ([4]; Homo sapiens, U2OS, Test II, read-out: IC50 Test (II) Avg) was 77.7 µM and the IC50 ([4]; Homo sapiens, U2OS, Test III, read-out: IC50 Test (III) Avg) was 69.7 µM. For the same molecule, the IC50 ([5]; Homo sapiens, SK-ES1, SK-ES-1, sarcoma, Test I, read-out: IC50 Test(I) Avg) was over 100 µM, the IC50 ([5]; Homo sapiens, SK-ES1, SK-ES-1, sarcoma, Test II, read-out: IC50 Test (II) Avg) was 73.2 µM and the IC50 ([5]; Homo sapiens, SK-ES1, SK-ES-1, sarcoma, Test III, read-out: IC50 Test (III) Avg) was 72.5 µM. For the same molecule, the IC50 [6, 14] was over 100 µM, the IC50 [6, 15] was over 100 µM and the IC50 [6, 16] was over 100 µM. It also gave an IC50 [7, 14] of 59.9 µM, an IC50 [7, 15] of 60.6 µM and an IC50 [7, 16] of 57.8 µM. It also gave an IC50 ([8]; Homo sapiens, NCI-H460, H460, lung, Test I, read-out: IC50 Test(I) Avg) of 69.3 µM, an IC50 ([8]; Homo sapiens, NCI-H460, H460, lung, Test II, read-out: IC50 Test (II) Avg) of 58.3 µM and an IC50 ([8]; Homo sapiens, NCI-H460, H460, lung, Test III, read-out: IC50 Test (III) Avg) of 67.1 µM. It also gave an IC50 ([9]; Homo sapiens, NCI-H1299, H1299, lung, Test I, read-out: IC50 Test(I) Avg) of 78.9 µM, an IC50 ([9]; Homo sapiens, NCI-H1299, H1299, lung, Test II, read-out: IC50 Test (II) Avg) of 67.3 µM and an IC50 ([9]; Homo sapiens, NCI-H1299, H1299, lung, Test III, read-out: IC50 Test (III) Avg) of 83 µM.

`CC1(C)CCC(C)(C)c2cc(NC(=O)c3ccc(C(=O)O)cc3)ccc21.O=C(O)c1ccc(-c2ccccc2)cc1` [TAM-biphenyl-4-carboxylic acid] gave an IC50 [2, 11] of 43.5 µM, an IC50 [2, 12] of 37.1 µM and an IC50 [2, 13] of over 100 µM. The IC50 [7, 11] was 49.3 µM, the IC50 [7, 12] was 41.3 µM and the IC50 [7, 13] was 46.3 µM. It also gave an IC50 [8, 17] of 56 µM, an IC50 [8, 18] of 51.7 µM and an IC50 [8, 19] of 55.2 µM. For the same molecule, the IC50 [9, 20] was 65.5 µM, the IC50 [9, 21] was 59.8 µM and the IC50 [9, 22] was 65.3 µM.

For `CC1(C)CCC(C)(C)c2cc(NC(=O)c3ccc(C(=O)O)cc3)ccc21.O=C(O)c1ccccc1-c1ccccc1C(=O)O` [TAM-diphenic acid], the IC50 [7, 11] was 21.7 µM, the IC50 [7, 12] was 38.9 µM and the IC50 [7, 13] was 26.6 µM. The IC50 [8, 17] was 35 µM, the IC50 [8, 18] was 34.7 µM and the IC50 [8, 19] was 32.3 µM. The IC50 [9, 20] was 40.8 µM, the IC50 [9, 21] was 41.4 µM and the IC50 [9, 22] was 39.9 µM.

Molecule `CC1(C)CCC(C)(C)c2cc(NC(=O)c3ccc(C(=O)O)cc3)ccc21.O=C(O)c1cc(O)c(O)c(O)c1` [TAM-gallic acid] has an IC50 [2, 11] of 11.6 µM, an IC50 [2, 12] of 9.98 µM and an IC50 [2, 13] of 14.9 µM. The IC50 [3, 11] was 81 µM, the IC50 [3, 12] was 90.3 µM and the IC50 [3, 13] was 108 µM. For the same molecule, the IC50 [4, 11] was 16.4 µM, the IC50 [4, 12] was 13 µM and the IC50 [4, 13] was 10.6 µM. For the same molecule, the IC50 ([5]; SK-ES-1, sarcoma, Test I, read-out: IC50 Test(I) Avg) was 10.1 µM, the IC50 ([5]; SK-ES-1, sarcoma, Test II, read-out: IC50 Test (II) Avg) was 5.94 µM and the IC50 ([5]; SK-ES-1, sarcoma, Test III, read-out: IC50 Test (III) Avg) was 6.76 µM. It also gave an IC50 [6, 11] of 47.5 µM, an IC50 [6, 12] of 64.2 µM and an IC50 [6, 13] of 88.5 µM. For the same molecule, the IC50 [7, 11] was 39.9 µM, the IC50 [7, 12] was 43.3 µM and the IC50 [7, 13] was 39.9 µM. It also gave an IC50 [8, 17] of 42 µM, an IC50 [8, 18] of 41.9 µM and an IC50 [8, 19] of 41.3 µM. It also gave an IC50 [9, 20] of 11.2 µM, an IC50 [9, 21] of 24.8 µM and an IC50 [9, 22] of 11.7 µM. For the same molecule, the “tumor spheres size compared with the parent molecule” value [10] was “reduced tumor spheres size”.

For `CC1(C)CCC(C)(C)c2cc(NC(=O)c3ccc(C(=O)O)cc3)ccc21.NC(=O)c1cccnc1` [TAM-nicotinamide], the IC50 [7, 11] was 56.6 µM, the IC50 [7, 12] was 59.1 µM and the IC50 [7, 13] was 49.8 µM. It also gave an IC50 [8, 17] of 56.6 µM, an IC50 [8, 18] of 51.1 µM and an IC50 [8, 19] of 50.3 µM. It also gave an IC50 [9, 20] of 49.7 µM, an IC50 [9, 21] of 55.9 µM and an IC50 [9, 22] of 53.9 µM.
